# Data taken from US20230028441A1, “NOVEL HETEROARYL-TRIAZOLE COMPOUNDS AS PESTICIDES” (Bayer Aktiengesellschaft, priority 2019, published 2023).
# What was measured:
# Type in all cases: in vivo
# [1] = system: adult brown dog ticks (Rhipicephalus sanguineus); assay: Rhipicephalus sanguineus in-vitro contact test with adult brown dog ticks; conditions: after 48 hours, read-out: efficacy (ticks dead or moribund); for pest or weed control at 1 µg/cm2, 100 g/ha: 1 μg/cm^2 (=100 g/ha); for pest or weed control at 5 µg/cm2, 500 g/ha: 5 μg/cm^2 (=500 g/ha)
# Summary of the method: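 Compound in acetone coated onto glass tube inner walls at 900 ppm, giving 5 μg/cm^2. Adult ticks (5-10 per tube) held at room temperature for 48 h, then placed on a 45-50° C. heating plate for up to 5 min. Ticks unable to climb away counted dead or moribund; efficacy given as % dead/moribund.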
# [2] = system: larvae of the banded cucumber beetle (Diabrotica balteata); assay: Diabrotica balteata spray test; conditions: 168 h, after 7 days, wheat seeds, read-out: efficacy (seedlings grown up); for pest or weed control at 32 µg/disc, 100 g/ha: 100 g/ha (=32 μg/well)
# Summary of the method: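 Germinated wheat seedlings (5 per well, agar plates) sprayed with compound in acetone/DMF diluted in water with 1000 ppm emulsifier, then infested with 10-20 larvae per unit. Efficacy scored after 7 days as % seedling growth relative to untreated, uninfested control (100% = normal growth, 0% = none).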
# [3] = system: adult unfed cat fleas (Ctenocephalides felis); assay: Ctenocephalides felis oral test; conditions: 48 h, 100 ppm in cattle blood, after 2 days
# Summary of the method: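 About 20 adult unfed Ctenocephalides felis fed through parafilm on cattle blood dosed with compound (DMSO stock diluted in blood), blood chamber at 37°C, fleas at room temperature. Mortality (%) scored after 2 days; 100% means all fleas killed.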
# [4] = system: adult engorged female ticks (Rhipicephalus microplus); assay: Rhipicephalus (Boophilus) microplus injection test; conditions: 168 h, egg deposition after 7 days, read-out: efficacy (infertile eggs); for pest or weed control at 0.004 mg: 4 μg/animal; for pest or weed control at 0.02 mg: 20 μg/animal
# Summary of the method: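 Compound was dissolved in DMSO at 10 mg per 0.5 mL and diluted with DMSO to the test concentration. Five engorged adult females received a 1 μL abdominal injection and were kept in a climate chamber. After 7 days, fertile egg deposition was scored, with unclear eggs held until hatching at about 42 days; 100% efficacy means all eggs were infertile.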
# [5] = system: cattle tick larvae (Rhipicephalus microplus), strain Parkhurst, resistant against synthetic pyrethroids; assay: Rhipicephalus (Boophilus) microplus in-vitro contact test, larval cattle tick; conditions: 5 μg/cm^2 (=500 g/ha), after 48 hours, read-out: efficacy (larvae dead or moribund)
# Summary of the method: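 Acetone solutions of compound were coated on glass tube walls (900 ppm giving 5 μg/cm^2) and dried. 20–50 pyrethroid-resistant Parkhurst larvae were held per tube at 27° C and 85% relative humidity; after 48 h negative geotaxis scored efficacy as percent larvae dead or moribund.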
# [6] = system: adult cat fleas (Ctenocephalides felis); assay: Ctenocephalides felis in-vitro contact test, adult cat flea; conditions: 5 μg/cm^2 (=500 g/ha), after 48 hours, read-out: efficacy (fleas dead or moribund)
# Method: 9 mg compound is solved in 1 mL acetone and diluted with acetone to the desired concentration. 250 μL of the test solution is filled in 25 mL glass test tubes and homogeneously distributed on the inner walls by rotation and tilting on a shaking device (2 h at 30 rpm). With a compound concentration of 900 ppm, an inner surface of 44.7 cm^2 and a homogeneous distribution, a dose of 5 μg/cm^2 is achieved.
# After the solvent has evaporated, each test tube is filled with 5-10 adult cat fleas (Ctenocephalides felis), closed with a perforated lid and incubated in a lying position at room temperature and relative humidity. After 48 hours efficacy is determined. The fleas are patted on the ground of the tubes and are incubated on a heating plate at 45-50° C. for at most 5 minutes. Immotile or uncoordinated moving fleas, which are not able to escape the heat by climbing upwards, are marked as dead or moribund.
# An efficacy of 100% means all fleas are dead or moribund; 0% means no fleas are dead or moribund.
# [7] = system: green peach aphid (Myzus persicae); assay: Myzus persicae oral test; conditions: 120 h
# Summary of the method: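 Compound was dissolved at 1 part by weight in 100 parts acetone, then diluted with water to test concentration and combined with IPL41 insect medium (33%+15% sugar). A mixed aphid population fed on this through a parafilm seal, and mortality (%) was scored after 5 days.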
# [8] = system: green peach aphid (Myzus persicae); assay: Myzus persicae spray test; conditions: foliar, 120 h, after 5 days, Chinese cabbage leaf disks
# Method: Solvent: 78.0 parts by weight acetone • 1.5 parts by weight dimethylformamide
# Emulsifier: alkylarylpolyglycol ether
# (§1) To produce a suitable preparation of active compound, 1 part by weight of active compound is mixed with the stated amount of solvents and is diluted with water, containing an emulsifier concentration of 1000 ppm, to the desired concentration. Further test concentrations are prepared by dilution with emulsifier containing water.
# Chinese cabbage (Brassica pekinensis) leaf disks infected with all instars of the green peach aphid (Myzus persicae), are sprayed with a preparation of the active ingredient of the desired concentration.
# After 5 days mortality in % is determined. 100% means all aphids have been killed and 0% means none of the aphids have been killed.
# [9] = system: larvae of the southern green stink bug (Nezara viridula); assay: Nezara viridula spray test; conditions: in Hordeum vulgare, 96 h
# Summary of the method: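 Barley plants infested with Nezara viridula larvae were sprayed with compound in acetone/dimethylformamide, diluted in water containing 1000 ppm alkylarylpolyglycol ether emulsifier. Mortality (%) was scored after 4 days; 100% means all stink bugs killed.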
# [10] = system: fall armyworm larvae (Spodoptera frugiperda); assay: Spodoptera frugiperda spray test (maize leaf sections); conditions: 168 h
# Summary of the method: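 Maize leaf sections were sprayed with compound formulated in acetone/DMF and diluted in water containing 1000 ppm emulsifier. Once dry, sections were infested with fall armyworm larvae. Mortality (%) was scored after 7 days.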
# [11] = system: caterpillars of the fall army worm (Spodoptera frugiperda); assay: Spodoptera frugiperda spray test (cotton leaves); conditions: 168 h
# Method: Solvent: 14 parts by weight of dimethylformamide
# Emulsifier: alkylaryl polyglycol ether
# as §1, with “solvent” for “solvents”, “water. Ammonium salt and/or penetration enhancer in a dosage of 1000 ppm are added to the desired concentration if necessary.” for “water.”
# Cotton leaves (Gossypium hirsutum) are treated by being sprayed with the preparation of the active compound of the desired concentration and are infested with caterpillars of the fall army worm (Spodoptera frugiperda).
# After 7 days mortality in % is determined. 100% means all the caterpillars have been killed and 0% means none of the caterpillars have been killed.
# [12] = system: brown planthopper (Nilaparvata lugens); assay: Nilaparvata lugens spray test; conditions: in Oryza sativa, 96 h
# Summary of the method: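 Rice plants (Oryza sativa) sprayed with compound in acetone/DMF diluted in water containing 1000 ppm alkylarylpolyglycol ether emulsifier, then infested with planthoppers. Mortality % scored after 4 days (100% = all killed, 0% = none killed).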
Compound,"pest or weed control at 1 µg/cm2, 100 g/ha [1]","pest or weed control at 5 µg/cm2, 500 g/ha [1]","pest or weed control at 32 µg/disc, 100 g/ha [2]",mortality at 100 ppm [3],pest or weed control at 0.004 mg [4],pest or weed control at 5 µg/cm2 [5],pest or weed control at 5 µg/cm2 [6],mortality at 4 ppm [7],mortality at 100 g/ha [8],mortality at 100 g/ha [9],mortality at 100 g/ha [10],pest or weed control at 0.02 mg [4],mortality at 20 ppm [11],mortality at 500 g/ha [10],"pest or weed control at 160 µg/disc, 500 g/ha ([2]; 500 g/ha (=160 μg/well))",mortality at 500 g/ha [9],mortality at 500 g/ha ([8]; 500 g/ha),mortality at 500 g/ha [12]
CC(NC(=O)c1cc(C(F)(F)F)cc(C(F)(F)F)c1)c1nc(N)nn1-c1ncccn1 (stereo not shown) [I-007],100%,100%,100%,100%,100%,100%,100%,100%,90%,100%,100%,–,–,–,–,–,–,–
CC(NC(=O)c1cc(Cl)cc(C(F)(F)F)c1)c1nc(NC(=O)C2CC2)nn1-c1ccc(Cl)cn1 (stereo not shown) [I-015],–,–,–,100%,100%,–,–,–,–,–,100%,100%,100%,100%,–,–,–,–
CC(NC(=O)c1cc(Cl)cc(C(F)(F)F)c1)c1nc(CS(C)(=O)=O)nn1-c1ccc(Cl)cn1 (stereo not shown) [I-029],–,–,–,100%,100%,–,–,–,–,–,100%,100%,100%,100%,–,–,–,–
CC(NC(=O)c1cc(Cl)cc(C(F)(F)F)c1)c1nc(S(C)(=O)=O)nn1-c1ccc(Cl)cn1 (stereo not shown) [I-063],–,–,100%,–,100%,–,–,100%,–,–,100%,100%,100%,100%,100%,100%,–,–
CC(NC(=O)c1cc(Cl)cc(OC(F)(F)F)c1)c1nc(N)nn1-c1ncccn1 (stereo not shown) [I-090],–,–,100%,100%,100%,90%,90%,–,90%,–,100%,–,–,–,–,–,–,–
CC(NC(=O)c1cc(Br)cc(OC(F)(F)F)c1)c1nc(N)nn1-c1ncccn1 (stereo not shown) [I-095],–,–,100%,–,–,100%,90%,100%,–,–,–,–,–,–,–,90%,90%,–
CC(NC(=O)c1cc(Br)cc(Br)c1)c1nc(N)nn1-c1ccc(C#N)cn1 (stereo not shown) [I-114],–,–,100%,–,–,100%,–,90%,–,–,100%,–,100%,–,–,–,–,–
CC(NC(=O)c1cc(Br)cc(C(F)(F)F)c1)c1nc(N)nn1-c1ccc(C#N)cn1 (stereo not shown) [I-117],–,–,100%,100%,100%,100%,–,100%,–,–,100%,–,100%,–,–,100%,–,–
"CNc1nc([C@H](C)NC(=O)c2cc(C(F)(F)F)cc(C(F)(F)F)c2)n(-c2ncccn2)n1 [I-127, N-[(1S)-1-[5-(methylamino)-2-pyrimidin-2-yl-1,2,4-triazol-3-yl]ethyl]-3,5-bis(trifluoromethyl)benzamide]",100%,100%,100%,–,–,100%,100%,–,90%,–,100%,–,–,–,–,100%,–,90%
"C[C@H](NC(=O)c1cc(C(F)(F)F)cc(C(F)(F)F)c1)c1nc(N)nn1-c1ncccn1 [I-134, N-[(1S)-1-(5-amino-2-pyrimidin-2-yl-1,2,4-triazol-3-yl)ethyl]-3,5-bis(trifluoromethyl) benzamide]",100%,100%,100%,–,–,100%,100%,–,100%,–,100%,–,–,–,–,100%,–,100%
CNc1nc([C@H](C)NC(=O)c2cc(Br)cc(OC(F)(F)F)c2)n(-c2ccc(C#N)cn2)n1 [I-142],–,–,100%,–,–,–,–,–,–,–,100%,–,100%,–,–,100%,–,–
CNc1nc([C@H](C)NC(=O)c2cc(Br)cc(Br)c2)n(-c2ccc(C#N)cn2)n1 [I-143],–,–,100%,–,–,–,–,–,–,–,100%,–,100%,–,–,100%,–,–
"C[C@H](NC(=O)c1cc(Cl)cc(S(C)(=O)=O)c1)c1nc(N)nn1-c1ccc(C#N)cn1 [I-148, N-[(1S)-1-[5-amino-2-(5-cyano-2-pyridyl)-1,2,4-triazol-3-yl]ethyl]-3-chloro-5-methylsulfonyl-benzamide]",–,–,100%,–,–,90%,–,–,90%,–,100%,–,–,–,–,100%,–,100%
CC(NC(=O)c1cc(OC(F)(F)F)cc(S(C)(=O)=O)c1)c1nc(N(C)C)nn1-c1ncc(Cl)cn1 (stereo not shown) [I-192],–,–,100%,–,–,–,–,–,90%,–,100%,–,–,–,–,100%,–,100%
CNc1nc([C@H](C)NC(=O)c2cc(Cl)cc(S(=O)(=O)C(F)F)c2)n(-c2ncccn2)n1 [I-202],–,–,100%,–,–,–,–,–,90%,–,100%,–,–,–,–,100%,–,100%
